The values below come from patent publication US20100086518A1, “TREATMENT OF MELANOMA” (NOVARTIS AG, priority 2007, published 2010).

Molecules are shown by their SMILES. Read-outs that look alike come from different tables or passages of the source.

In data set [1] the test system is melanoma tumor cells MEXF 514/12. The data set is described as follows: cells. The note with it: Homo sapiens.
Data set [2] concerns melanoma-inhibitory activity (MIA) protein. Kind of data set: Plasma MIA levels in the CHL-1 study. The format is in vivo, Nu/Nu mice. The note with it: 30 mg/kg and 80 mg/kg groups. As for the experimental part: MIA ELISA Assay: Equal numbers of human melanoma and colorectal carcinoma cells (˜250,000 cells for each cell line) were seeded onto tissue culture plates and the culture medium for each cell line was collected 48 hr later. Levels of MIA in culture media or plasma were measured by a commercial single-step ELISA kit according to the manufacturer's protocol (Roche Diagnostics Corporation, Indianapolis, Ind.). MIA concentrations in test samples were calculated using a standard curve ranging from 3-37 ng/mL. When the MIA concentration exceeded the highest standard concentration, the samples were diluted 1:5 and assayed again to have the results fall within the linear range of the standard curve. Data were evaluated using the Student t-test (two-tailed distribution, two-sample unequal variance), using P≦0.05 as the level of significance.
In the CHL-1 study, plasma levels of the melanoma marker melanoma-inhibitory activity (MIA) protein secreted by melanoma cells were also measured.

Data set [3] relates to melanoma tumor cells MEXF 1765/3. The data set is described as follows: cells. The conditions noted are these: Homo sapiens.
Data set [4] deals with melanoma tumor cells MEXF 989/7. The data set is described as follows: cells. The conditions noted are these: Homo sapiens.
Data set [5] has as its system bFGF-driven neovascularization. Kind of data set: In vivo FGF-mediated matrigel angiogenesis assay. The note with it: daily for 8 days.
Data set [6] concerns other kinases in the PI3K/Akt and MAPK(K) pathways. The conditions noted are these: read-out: IC50 other kinases in the PI3K/Akt and MAPK(K) pathways; negligible activity.
Data set [7] deals with BRaf WT CHL-1 melanoma tumors.
Data set [8] has as its system melanoma tumor cells MEXF 276/7. The data set is described as follows: cells. The conditions noted are these: Homo sapiens.
Data set [9] concerns human melanoma CHL-1 (wild type B-Raf) xenograft. In kind it is in vivo. The conditions noted are these: day 25. On the procedure: Animals. […] . Mice were implanted with subcutaneous ID chips upon arrival and then underwent at least 7 days of acclimatization prior to the study start. All animal studies were conducted in a facility accredited by the Association for Assessment and Accreditation of Laboratory Animal Care International and in accordance with all guidelines of the Institutional Animal Care and Use Committee and the Guide for The Care and Use of Laboratory Animals (National Research Council).
Cell culture for in vivo efficacy studies. […] The human melanoma cell line CHL-1 was cultured for 6 passages in DMEM media with low glutamine+10% FBS at 37° C. in a humidified atmosphere with 5% CO2.
The day of tumor cell implantation, tumor cells were harvested and resuspended in HBSS (A375 cells) or 50% HBSS+plus 50% Matrigel (CHL-1 cells; Becton Dickenson and Company, Franklin Lakes, N.J.) at 2.5×10^7 cells/mL. Cells were inoculated subcutaneously in the right flank at 5×10^6 cells/200 uL/mouse.
. The group sizes were 9 animals per group (A375 study) or 10 animals per group (CHL-1 study). […] . […] . […] Comparisons of the mean tumor volume in the treatment vs. the vehicle group were evaluated using a Student's two tailed t-test (Excel software).

Data set [10] relates to melanoma tumor cells MEXF 1341/3. The data set is described as follows: cells. The note with it: Homo sapiens.
Data set [11] has as its system melanoma tumor cells MEXF 462/6. Kind of data set: cells. The conditions noted are these: Homo sapiens.
Data set [12] has as its system melanoma tumor cells MEXF 672/3. The data set is described as follows: cells. The note with it: Homo sapiens.
The target of another data set is T1, VEGFR2/Flk1 (UniProt P35968).
T1 construct: other: purified enzyme
The data set is described as follows: VEGFR2 kinase assay (purified enzyme). The format is biochemical. The conditions noted are these: read-out: IC50 VEGFR flk1.

Setting [13] is: Cmpd 1 30 mg/kg qd, carboplatin 50 mg/kg + paclitaxel 25 mg/kg 1x/wk.

With `CN1CCN(c2ccc3nc(-c4c(N)c5c(F)cccc5[nH]c4=O)[nH]c3c2)CC1` [Compound 1, 4-amino-5-fluoro-3-[6-(4-methylpiperazin-1-yl)-1H-benzimidazol-2-yl]-1H-quinolin-2-one], the IC50 was 1050 nM in data set [1] (MEXF514, read-out: IC50 clonogenic, MEXF 514/12); 2580 nM in [3] (read-out: IC50 clonogenic, MEXF 1765/3); 2540 nM in [4] (MEXF 989, read-out: IC50 clonogenic, MEXF 989/7); greater than 10 µM in data set [6]; 1140 nM in data set [8] (read-out: IC50 clonogenic, MEXF 276/7); 2240 nM in data set [10] (read-out: IC50 clonogenic, MEXF 1341/3). In addition, the IC50 was found to be 700 nM in [11] (read-out: IC50 clonogenic, MEXF 462/6) and 1670 nM in data set [12] (read-out: IC50 clonogenic, MEXF 672/3). Further, the EC50 in data set [1] (MEXF514, read-out: relative EC50 soft agar clonogenic, 514/12) is 1050 nM; in data set [3] (read-out: relative EC50 soft agar clonogenic, 1765/3) it was 2580 nM; in [4] (MEXF 989, read-out: relative EC50 soft agar clonogenic, 989/7), 2540 nM; in data set [8] (read-out: relative EC50 soft agar clonogenic, 276/7), 1140 nM; in data set [10] (read-out: relative EC50 soft agar clonogenic, 1341/3), 2240 nM; in [11] (read-out: relative EC50 soft agar clonogenic, 462/6) it was 700 nM. In addition, the EC50 in data set [12] (read-out: relative EC50 soft agar clonogenic, 672/3) turned out to be 1670 nM. The “plasma MIA levels” value is listed as “undetectable” in data set [2] (day 8, vehicle […]) and “undetectable” in [2] (day 22). Further, the “hemoglobin level in Matrigel plugs versus unsupplemented Matrigel” value in data set [5] (all doses >10 mg/kg) is recorded as “less than the basal hemoglobin level”. Further, in data set [5] (oral, 3-100 mg/kg, hemoglobin in Matrigel plugs), the “IC50 of inhibition of bFGF-driven neovascularization” value amounted to 3 mg/kg. Also, in data set [7] (BAR = bright, alert, responsive, BWL = body weight loss), the “Clinical Observations” value is “BAR”. In data set [7] (setting [13]), the “% Mean change in BW of initial” value is on record as 4.3%. Besides, the “Max % TGI; day 14” value in data set [7] (setting [13]) amounted to 52.51%. Besides, the “Mean of Tv on day 14” value in data set [7] (Cmpd 1 30 mg/kg qd, carboplatin 50 mg/kg + paclitaxel 25 mg/kg 1x/wk, tumor volume in mm^3) came to 884. The “T/C Observed (O)” value in data set [7] (day 14) was found to be 0.56. The “tumor growth inhibition (TGI)” value in data set [9] (10 mpk p.o. daily) is 64%; in data set [9] (30 mpk p.o. daily), 73%; in [9] (60 mpk p.o. daily), 89%; in [9] (80 mpk p.o. daily) it was 87%.
Take `Nc1c(-c2nc3ccc(N4CCNCC4)cc3[nH]2)c(=O)[nH]c2cccc(F)c12` [Compound 3, 4-Amino-5-fluoro-3-(6-piperazin-1-yl-1H-benzimidazol-2-yl)quinolin-2(1H)-one]: on VEGFR2/Flk1, the IC50 came out at […].
